Target: Mitogen-activated protein kinase 14 (Homo sapiens, UniProt Q16539)
Assay: Enzyme Inhibition Assay

Sequence of Mitogen-activated protein kinase 14 (Q16539 whole entry): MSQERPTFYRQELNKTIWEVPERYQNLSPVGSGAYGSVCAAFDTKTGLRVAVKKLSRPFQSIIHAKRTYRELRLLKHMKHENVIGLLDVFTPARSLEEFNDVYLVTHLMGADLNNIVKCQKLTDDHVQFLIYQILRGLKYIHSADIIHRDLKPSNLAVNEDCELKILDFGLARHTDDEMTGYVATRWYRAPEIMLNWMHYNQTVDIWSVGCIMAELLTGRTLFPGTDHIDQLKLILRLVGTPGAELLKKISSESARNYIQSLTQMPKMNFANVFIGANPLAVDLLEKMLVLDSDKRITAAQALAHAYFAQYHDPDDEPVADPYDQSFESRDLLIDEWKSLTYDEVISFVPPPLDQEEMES

IC50: 70 nM
SMILES: CCn1c(=O)n(CC)c2cc(-c3[nH]c(C4CCNCC4)nc3-c3cccc(C)c3)ccc21 [1,3-diethyl-5-[4-(3-methylphenyl)-2-(piperidin-4-yl)-1H-imidazol-5-yl]-2,3-dihydro-1H-1,3-benzodiazol-2-one]

From BindingDB's records for doi:10.1016/j.bmcl.2003.12.023 (Pfizer, 2004)
